In PMC10671052, “Naphthyl-Substituted Indole and Pyrrole Carboxylic Acids as Effective Antibiotic Potentiators—Inhibitors of Bacterial Cystathionine γ-Lyase” (International Journal of Molecular Sciences, 2023):
Where two headings read alike, the source gives them in different places.

Experiments:
[1] = biological target: T1, human cystathionine-γ-lyase (hCSE) (Homo sapiens, UniProt P32929); assay: IC50 assay: inhibition of H2S production by purified hCSE, WSP5 fluorescent probe; format: biochemical; conditions: for IC50: purified hCSE 0.02 μM, 100 μM L-cysteine, WSP5 probe, mean ± SD
T1 construct: His6-TEV (N, cleaved yes); host or cells: E. coli
T1 sequence (P32929 whole entry): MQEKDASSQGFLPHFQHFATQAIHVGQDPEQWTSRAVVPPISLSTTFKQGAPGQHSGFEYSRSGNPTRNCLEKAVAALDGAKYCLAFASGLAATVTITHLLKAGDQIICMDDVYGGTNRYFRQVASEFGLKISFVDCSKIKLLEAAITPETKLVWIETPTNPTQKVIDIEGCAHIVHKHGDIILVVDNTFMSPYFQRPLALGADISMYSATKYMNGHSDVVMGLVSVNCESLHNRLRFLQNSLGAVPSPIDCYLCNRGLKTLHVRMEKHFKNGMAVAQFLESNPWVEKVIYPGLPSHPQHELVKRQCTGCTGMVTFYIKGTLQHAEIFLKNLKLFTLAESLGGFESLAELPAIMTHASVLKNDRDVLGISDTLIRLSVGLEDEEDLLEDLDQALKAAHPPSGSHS
Protocol: (§1) Fluorescence spectrophotometry-based inhibitory activity toward purified bCSE and hCSE was measured in a 96-well nonbinding black plate (Greiner, Kremsmunster, Austria) at 100 μL of the reaction mixture per well. bCSE and hCSE (0.02 μM) were preincubated in a thermoshaker (Biosan, Riga, Latvia) (30 °C, 300 rpm) for 40 min in 50 mM sodium phosphate buffer (pH 8.0), supplemented with 10 μM pyridoxal 5′-phosphate (Sigma-Aldrich, St. Louis, MO, USA), 0.1% of Tween 20 (Sigma-Aldrich, St. Louis, MO, USA), and 1.2 μM Washington State Probe-5 (Cayman Chemical, Ann Arbor, MI, USA) (excitation: 500 nm, emission: 530 nm) at different concentrations of a tested inhibitor. The reaction was initiated by the addition of 100 μM L-cysteine (TCI, Chennai, Tamil Nadu, India) in 50 mM sodium phosphate buffer pH 8.0 to the reaction mixture, and the enzymatic activity was monitored for 12 h using a CLARIOstar Plus instrument (BMG LABTECH GmbH, Ortenberg, Germany). The 100 µM L-cysteine concentration used in the experiments corresponds to the maximal reported intracellular concentration in bacteria. The data were normalized to the positive and negative controls, and IC50 values were obtained by fitting to a four-parameter sigmoidal curve (inhibitor vs. response, variable slope model) in GraphPad Prism 8 software (GraphPad by Dotmatics, Boston, MA, USA). Each experiment was conducted with 2–3 technical replicates. IC50 values were means of at least two independent experiments.
(§2) For the production of S. aureus cystathionine-γ-lyase (bCSE) and of human cystathionine-γ-lyase (hCSE), plasmids pSUMO:saCSE (Addgene # 54336) and pNIC28-Bsa4 (Addgene # 42365) were employed. Cultivation of a competent E. coli cell strain (Thermo Fisher Scientific, Waltham, MA, USA), transformed with a target plasmid, was carried out on a selective solid medium with kanamycin. Bacterial cells harboring the plasmid vector were cultured at 37 °C and 180 rpm until OD600 = 0.65. Then, isopropyl β-D1-thiogalactopyranoside (IPTG) was added to a final concentration of 1 mM. To obtain bCSE, the cells were cultured for 3.5 h at 37 °C; to obtain hCSE, the cells were cultured for 18–20 h at 25 °C. After centrifugation, cells were resuspended in a buffer composed of 50 mM Tris–HCl, at a pH of 8.0, and 300 mM sodium chloride. After that, the cells were lysed by ultrasonication, with a pulse duration of 15 s and an interval between pulses of 15 s. The amplitude of the ultrasonic vibrations was 50% of the maximum. After lysis, samples were centrifuged for 15 min (20,000× g at 4 ℃). The pH of the supernatant obtained after the centrifugation was adjusted to 7.5 by the addition of a 1 M solution of Tris–OH. Then, the test sample was subjected to filtration through a polyethersulfone membrane with a pore diameter of 0.22 μm.

[2] = biological target: S. aureus cystathionine-γ-lyase (bCSE) (Staphylococcus aureus, UniProt A0A0H3K724); assay: IC50 assay: inhibition of H2S production by purified bCSE, WSP5 fluorescent probe; format: biochemical
Chain of S. aureus cystathionine-γ-lyase (bCSE) (A0A0H3K724 entry or part of it): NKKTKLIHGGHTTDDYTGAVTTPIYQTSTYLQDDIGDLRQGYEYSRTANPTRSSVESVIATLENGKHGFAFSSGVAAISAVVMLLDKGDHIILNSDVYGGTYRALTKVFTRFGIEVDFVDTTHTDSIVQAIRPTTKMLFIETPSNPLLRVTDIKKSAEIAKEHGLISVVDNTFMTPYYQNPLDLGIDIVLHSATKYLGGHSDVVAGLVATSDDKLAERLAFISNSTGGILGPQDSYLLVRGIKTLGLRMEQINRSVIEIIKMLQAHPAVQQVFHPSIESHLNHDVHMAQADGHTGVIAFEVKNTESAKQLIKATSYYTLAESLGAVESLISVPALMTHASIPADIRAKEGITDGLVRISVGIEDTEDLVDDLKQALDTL
Protocol: as §1, §2

[3] = system: P. aeruginosa GIMC5016:PA1840/36/2015; assay: MIC of antibiotics alone and with potentiators, clinical isolate; conditions: P. aeruginosa GIMC5016:PA1840/36/2015, no potentiator
Protocol: (§3) Overnight (ON) culture of a specific strain was grown in the liquid Luria–Bertani nutrient medium (LB broth, BD Difco) for 18 h at 37 °C, with agitation at 180 rpm using an Innova 44R orbital shaker (Eppendorf, Hamburg, Germany). After a certain period, 50 µL of the ON culture was transferred into 5 mL of the LB medium and grown for 3 h at 37 °C with agitation. Growth in the liquid medium was assessed by means of turbidity of the suspension, measured using a Densi-La-Meter II densitometer (Erba Lachema s.r.o., Brno, Czech Republic). Then, the bacterial suspension was diluted to the concentration 10^6 cells/mL with sterile LB and used as a seed culture [38, 39].
(§4) For the assessment of MICs, 96-well microtiter plates were utilized at 200 µL of a medium per well. Each well was filled with 100 µL of the seed culture. After that, 10 µL of a solution of each tested synthetic compound (potentiators) was added into each experimental well. Finally, 90 µL of twofold serial dilutions of an antibiotic in a sterile LB was added into individual wells.
(§5) As a positive control, we set up wells with 100 µL of the bacterial culture and 100 µL of the sterile LB medium. […] Negative-control wells contained 200 µL of the sterile medium. The plates were incubated in a thermostat for 18–20 h at 37 °C. The bacterial growth was assessed as optical density at 600 nm on a CLARIOstar microplate reader (BMG LABTECH GmbH, Ortenberg, Germany)).

[4] = system: P. aeruginosa GIMC5016:PA1840/36/2015; assay: Susceptibility of isolate to main antimicrobial agents; format: cell-based
[5] = system: A. baumannii GIMC5509:ABT-52Ts19; assay: MIC of antibiotics alone and with potentiators, clinical isolate; conditions: A. baumannii GIMC5509:ABT-52Ts19, no potentiator
Protocol: as §3, §4, §5

[6] = HEK293 cytotoxicity assay (Alamar Blue); format: cell-based; conditions: human, HEK293, 72 h
Protocol: The HEK 293 cell line was obtained from the European Collection of Authenticated Cell Cultures (ECACC, cat. # 85120602, Salisbury, UK). The cells were grown in a monolayer culture in Dulbecco’s Modified Eagle’s Medium (DMEM) (PanEco, Moscow, Russia), supplemented with 2 mM L-glutamine, 1% of a penicillin/streptomycin solution (Capricorn Scientific, Ebsdorfergrund, Germany), and 10% of heat inactivated fetal bovine serum (HyClone, Cytiva, Marlborough, MA, USA) in a humidified atmosphere containing 5% of CO2 at 37 °C (Binder, Germany). For the assay, HEK 293 cells were seeded in a 96-well plate (Corning, NY, USA) in 100 μL of the complete culture medium, at a final density of 2 × 10^3 cells/well, and were cultured for 24 h for proper attachment. Subsequently, the medium was removed, and the cells were exposed to a tested inhibitor at different concentrations for 72 h in 100 μL of the fresh complete culture medium. The sensitivity of the cells to the compounds was detected using the vital dye Alamar Blue (Invitrogen, San Diego, CA, USA). The Alamar Blue assay was performed according to the procedure described by O’Brien et al.. After incubation with the tested bCSE inhibitors, 10 μL of the Alamar Blue reagent was added into each well, the cell culture plates were returned to the humidified incubator, and the fluorescence was read after 3 h. The plates were exposed to an excitation light of 545 nm wavelength, and emission at 600 nm was measured on the CLARIOstar Plus (BMG LABTECH GmbH, Ortenberg, Germany). To determine half-maximal cytotoxic concentration (CC50), a four-parameter sigmoidal curve model (GraphPad Prism 8 software) was fitted to the measurement data.

[7] = in vitro
Protocol: A test compound (final concentration 10 μM) was incubated at 37 °C in SGF, SIF, or human plasma for 2, 2, or 4 h, respectively. 100 μL aliquots were taken from each sample and 300 μL of acetonitrile containing an internal standard was added. […] All compounds were tested in triplicate. The percentage of a remaining compound after incubation was determined based on the chromatographic peak area of the sample after incubation and that of time zero (freshly prepared and injected) sample.

[8] = read-out: IC50 biochemical assay hCSE
[9] = IC50 biochemical assay bCSE, purified bCSE 0.02 μM, 100 μM L-cysteine, WSP5 probe, mean ± SD
[10] = IC50 (uM), bCSE enzymatic IC50, rounded, repeated in Table S13
[11] = IC50 (uM), bCSE enzymatic IC50, rounded, repeated in Table S14
[12] = IC50 (uM), bCSE enzymatic IC50, rounded, repeated in Table S15

## C#CC[C@H](N)C(=O)O (racemic) [PAG, DL-propargylglycine, reference compound]
[1]
  Hill slope of dose-response curve toward hCSE: ~1.0
[1]; [8]
  IC50: 0.17 ± 0.02 µM
[2]
  Hill slope of dose-response curve toward bCSE: approximately two
[2]; [9]
  IC50: 24.3 ± 0.7 µM

## CO/N=C(\C(=O)N[C@@H]1C(=O)N2C(C(=O)[O-])=C(C[N+]3(C)CCCC3)CS[C@H]12)c1csc(N)n1 [Cefepim, cefepime]
[3]
  MIC of antibiotic alone: 256 µg/mL
[4]
  susceptibility of isolate (Sensitive to / Resistant to): Resistant to
[5]
  MIC of antibiotic alone: > 512 µg/mL

## O=C(O)c1cn(Cc2cccc3ccccc23)c2ccccc12 [Compound 1a]
[1]
  activity toward hCSE (in words): did not show noticeable activity
[1]; IC50 biochemical assay hCSE
  IC50: > 500 µM
[6]
  CC50 at 72 h: 432 ± 37.5 µM
[2]
  activity toward bCSE (in words): did not show noticeable activity
[2]; [9]
  IC50: > 500 µM

## O=C(O)c1cn(Cc2ccc3ccccc3c2)c2ccccc12 [Compound 1b]
[1]
  activity toward hCSE (in words): did not show noticeable activity
[1]; IC50 biochemical assay hCSE
  IC50: > 500 µM
[6]
  CC50 at 72 h: 423 ± 71.8 µM
[2]
  activity toward bCSE (in words): did not show noticeable activity
[2]; [10]
  IC50: > 500 µM
[2]; [11]
  IC50: > 500 µM
[2]; [9]
  IC50: > 500 µM

## O=C(O)c1cc2ccccc2n1Cc1ccc2ccccc2c1 [Compound 2b]
[1]; [8]
  IC50: 285 ± 14.6 µM
[6]; HEK293 cells
  CC50 at 72 h: 368 ± 32.8 µM
[2]; [10]
  IC50: 71 µM
[2]; [11]
  IC50: 71 µM
[2]; [12]
  IC50: 71 µM
[2]; [9]
  IC50: 71.1 ± 4.2 µM

## O=C(O)c1ccc2ccn(Cc3cccc4ccccc34)c2c1 [Compound 3a]
[1]; [8]
  IC50: 472 ± 37.3 µM
[6]; HEK293 cells
  CC50 at 72 h: 452 ± 21.5 µM
[2]; [10]
  IC50: 79 µM
[2]; [11]
  IC50: 79 µM
[2]; [12]
  IC50: 79 µM
[2]; [9]
  IC50: 79.3 ± 5.9 µM

## O=C(O)c1ccc2ccn(Cc3ccc4ccccc4c3)c2c1 [Compound 3b]
[1]; [8]
  IC50: > 500 µM
[6]; HEK293 cells
  CC50 at 72 h: 528 ± 47.1 µM
[2]; [11]
  IC50: 141 µM
[2]; [12]
  IC50: 141 µM
[2]; [9]
  IC50: 148 ± 46.4 µM

## O=C(O)c1ccc2c(ccn2Cc2ccc3ccccc3c2)c1 [Compound 4b]
[1]; [8]
  IC50: > 500 µM
[6]; HEK293 cells
  CC50 at 72 h: 217 ± 93.2 µM
[2]; [10]
  IC50: 110 µM
[2]; [11]
  IC50: 110 µM
[2]; [12]
  IC50: 110 µM
[2]; [9]
  IC50: 110 ± 11.7 µM

## O=C(O)c1cccn1Cc1cccc2ccccc12 [Compound 5a]
[1]; [8]
  IC50: > 500 µM
[6]; HEK293 cells
  CC50 at 72 h: 460 ± 51.1 µM
[2]; [10]
  IC50: 289 µM
[2]; [11]
  IC50: 289 µM
[2]; [12]
  IC50: 289 µM
[2]; [9]
  IC50: 289 ± 30.4 µM

## O=C(O)c1cccn1Cc1ccc2ccccc2c1 [Compound 5b]
[1]; [8]
  IC50: > 500 µM
[6]; HEK293 cells
  CC50 at 72 h: 848 ± 72.2 µM
[2]; [10]
  IC50: > 500 µM
[2]; [11]
  IC50: > 500 µM
[2]; [12]
  IC50: > 500 µM
[2]; [9]
  IC50: > 500 µM

## COc1cccc2c1C(=O)c1c(O)c3c(c(O)c1C2=O)C[C@@](O)(C(=O)CO)C[C@@H]3O[C@H]1C[C@H](N)[C@H](O)[C@H](C)O1 [Doxorubicin, reference compound]
[6]; HEK293 cells
  CC50 at 72 h: 1.3 ± 0.71 µM

## CNC(C)C1CCC(N)C(OC2C(N)CC(N)C(OC3OCC(C)(O)C(NC)C3O)C2O)O1 (centres unmarked) [Gentamicin, gentamicin]
[3]
  MIC of antibiotic alone: > 512 µg/mL
[4]
  susceptibility of isolate (Sensitive to / Resistant to): Resistant to

## C[C@@H](O)[C@H]1C(=O)N2C(C(=O)O)=C(S[C@@H]3CN[C@H](C(=O)N(C)C)C3)[C@H](C)[C@H]12 [Meropenem, meropenem]
[3]
  MIC of antibiotic alone: 16 µg/mL
[4]
  susceptibility of isolate (Sensitive to / Resistant to): Resistant to
[5]
  MIC of antibiotic alone: 64 µg/mL

## COc1ccc2[nH]c([S+]([O-])Cc3ncc(C)c(OC)c3C)nc2c1 (centres unmarked) [Omeprazole, reference compound]
[7]; simulated gi fluid, 2 h, 10 μM
  Stability in SIF, % Remaining at 2 h: 90.5%
[7]; simulated gi fluid, Stability in SGF
  remaining at 2 h, 10 μM: < 0.1%
[7]; simulated gi fluid, Stability in SIF
  remaining at 2 h, 10 μM: 90.5 ± 10%

## CC(C)[N+](C)(CCOC(=O)C1c2ccccc2Oc2ccccc21)C(C)C [Propantheline, propantheline bromide, reference compound]
[7]; 4 h, 10 μM
  Stability in human plasma, % Remaining at 4 h: 0.2%
[7]; human, plasma, Stability in human plasma, % Remaining at 4 h
  remaining at 4 h, 10 μM: 0.21 ± 0.04%

## NCC[C@H](O)C(=O)N[C@@H]1C[C@H](N)[C@@H](O[C@H]2O[C@H](CN)[C@@H](O)[C@H](O)[C@H]2O)[C@H](O)[C@H]1O[C@H]1O[C@H](CO)[C@@H](O)[C@H](N)[C@H]1O [amikacin]
[4]
  susceptibility of isolate (Sensitive to / Resistant to): Resistant to

## Cc1nnc(SCC2=C(C(=O)O)N3C(=O)[C@@H](NC(=O)Cn4cnnn4)[C@H]3SC2)s1 [cefazolin]
[4]
  susceptibility of isolate (Sensitive to / Resistant to): Resistant to

## CO/N=C(\C(=O)N[C@@H]1C(=O)N2C(C(=O)O)=C(COC(C)=O)CS[C@H]12)c1csc(N)n1 [cefotaxime]
[4]
  susceptibility of isolate (Sensitive to / Resistant to): Resistant to

## CC(C)(O/N=C(\C(=O)N[C@@H]1C(=O)N2C(C(=O)[O-])=C(C[n+]3ccccc3)CS[C@H]12)c1csc(N)n1)C(=O)O [ceftazidime]
[4]
  susceptibility of isolate (Sensitive to / Resistant to): Resistant to

## CO/N=C(\C(=O)N[C@@H]1C(=O)N2C(C(=O)O)=C(CSc3nc(=O)c(=O)[nH]n3C)CS[C@H]12)c1csc(N)n1 [ceftriaxone]
[4]
  susceptibility of isolate (Sensitive to / Resistant to): Resistant to

## O=C(O)c1cn(C2CC2)c2cc(N3CCNCC3)c(F)cc2c1=O [ciprofloxacin]
[4]
  susceptibility of isolate (Sensitive to / Resistant to): Resistant to

## C[C@H]1COc2c(N3CCN(C)CC3)c(F)cc3c(=O)c(C(=O)O)cn1c23 [levofloxacin]
[4]
  susceptibility of isolate (Sensitive to / Resistant to): Resistant to

## CCN1CCN(C(=O)N[C@@H](C(=O)N[C@@H]2C(=O)N3[C@@H]2SC(C)(C)[C@@H]3C(=O)O)c2ccccc2)C(=O)C1=O [piperacillin]
[4]
  susceptibility of isolate (Sensitive to / Resistant to): Resistant to

## NC[C@H]1O[C@H](O[C@H]2[C@H](O)[C@@H](O[C@H]3O[C@H](CO)[C@@H](O)[C@H](N)[C@H]3O)[C@H](N)C[C@@H]2N)[C@H](N)C[C@@H]1O [tobramycin]
[4]
  susceptibility of isolate (Sensitive to / Resistant to): Resistant to
